The values below are quoted from earlier work in US20220202680A1, “INCREASING THE STABILITY OF AGENTS FOR TREATING KERATIN MATERIAL” (Henkel AG & Co. KGaA, priority 2019, published 2022).

For this series the following is noted: for solubility in water: 25° C.

As to `O=S(=O)([O-])c1ccc(N=Nc2c(O)ccc3ccccc23)cc1.[Na+]` [Acid Orange 7, sodium salt of 4-[(2-hydroxy-1-naphthyl)azo]benzene sulphonate], the solubility in water result is on record as “more than 7 g/L”.

For `Nc1cc(S(=O)(=O)[O-])cc2cc(S(=O)(=O)[O-])c(N=Nc3ccccc3)c(O)c12.[Na+].[Na+]` [Acid Red 33, diantrium salt of 5-amino-4-hydroxy-3-(phenylazo)-naphthalene-2,7-disulphonate], the solubility in water was 2500 µg/mL.

Consider `O=C([O-])c1c(Cl)c(Cl)c(Cl)c(Cl)c1-c1c2c(Br)cc(=O)c(Br)c-2oc2c(Br)c(O)cc(Br)c12.O=C([O-])c1c(Cl)c(Cl)c(Cl)c(Cl)c1-c1c2c(Br)cc(=O)c(Br)c-2oc2c(Br)c(O)cc(Br)c12.[Na+].[Na+]` [Acid Red 92, disodium salt of 3,4,5,6-tetrachloro-2-(1,4,5,8-tetrabromo-6-hydroxy-3-oxoxanthen-9-yl)benzoic acid], for which the solubility in water entry was “greater than 10 g/L”.

Take `O=C([O-])C1=NN(c2ccc(S(=O)(=O)[O-])cc2)C(=O)C1N=Nc1ccc(S(=O)(=O)[O-])cc1.[Na+].[Na+].[Na+]` (stereo not shown) [Acid Yellow 23, trisodium salt of 4,5-dihydro-5-oxo-1-(4-sulfophenyl)-4-((4-sulfophenyl)azo)-1H-pyrazole-3-carboxylic acid]: the “solubility in water (in words)” value (at 25° C.) is listed as “highly soluble”.
